Experimental data taken from patent publication US20120148857A1, “Treated wood and methods of treatment” (priority 2010, published 2012).
Where two headings read alike, the source gives them in different places.

Columns and labels:
[1] = from the CRC listed solubility
Excerpt: Following is a listing of candidate zinc salts with the properties found in the CRC handbook, 65th edition, and their stated solubilities at various temperatures, and molecular weights. The Name in each case is followed by CRC listed solubilities at stated temperatures, Molecular weight, and Molarity of saturated solution.

[2] = pH test of impregnating solution with Hydrion test paper; conditions: 0.2 molar solution
Excerpt: It was then allowed to float in a 0.2 molar sodium metaborate solution, absorbing it by capillary wicking. After six hours the upper surface was damp.

[3] = Excerpt: Knowing the molecular weight of the product, it was possible to calculate how many moles of water were hydrated. It was thus possible to calculate the molar content of a saturated solution of the particular zinc salt, and thus to determine if is was sufficiently soluble at a low but possible processing temperature for an unheated preservative-treatment facility. […] Ten grams of the clear solution was dried overnight in a 70 C oven. […] Water has a molecular weight of 18.
The anhydrous foamed salt was crushed and added back to the solution, as crystallization seeding.
The washed precipitates were dried to constant weight in a 70 C oven.

[4] = pH measurement of aqueous solutions with ion-sensitive FET pH meter; assay type: physicochemical; conditions: water
Excerpt: Time was allowed for the pH reading to equilibrate after each addition. This typically took ten to thirty seconds, and increased noticeably with further additions. An Ion-Sensitive FET pH meter was used. The meter was calibrated before and after each measurement series with pH 7.0 buffer solution, and the readings corrected for any meter drift observed. The pH measurements were graphed.
Five milliliters of a solution of pH 4.1 contains about 10^−4 moles H^+ per liter times 5/1000=5×10^−7 moles H^+. Fifteen mL of a solution of pH 7.5 contains 15/1000×10^−75 moles of H^+, or about 10^−9.3 moles H^+. Twenty milliliters of a solution of pH 6.9 contains 20/1000×10^−6.9 moles of H+, or about 10^−8.7 moles of H+.

Molecule: O.O.O.O.O.O.O.O.O=S(=O)([O-])c1ccc(O)cc1.O=S(=O)([O-])c1ccc(O)cc1.[Zn+2] [Zinc phenol-sulfonate octahydrate]
- Molarity of saturated solution [1]: mol/L 1.12

Molecule: O=B[O-].[Na+] [sodium metaborate]
- pH of solution by Hydrion test paper [2]: 10-11 pH

Molecule: Zinc sorbate
- Solubility in words [3]: so little solubility even in hot water

Molecule: Zinc Valerate dihydrate
- Molarity of saturated solution [1]: mol/L 0.085

Molecule: (ZnO) (B2O3)2
- pH of a saturated solution [4]: 6.7

Molecule: zinc borate [zinc borate furnished by City Chemical, reference compound]
- pH of a saturated solution [4]: 6.7

Molecule: O=C([O-])CC(O)C(=O)[O-].[Zn+2] (stereo not drawn) [Zinc malate]
- Molarity of saturated solution [3]: mol/L 0.071
- Molarity of the saturated solution [3]: 0.133 M
- Solubility (laboratory measurement) [3]: Zinc malate 1.4 g/100 ml@16 C.

Molecule: Zinc mandelate
- Molarity of saturated solution ([3]; from the laboratory solubility (10-16 C)): mol/L 0.010
- Solubility (laboratory measurement) ([3]; water, 14 C): Zinc mandelate 0.38 g/100 ml@14 C.

Molecule: O=C([O-])c1ccccc1.O=C([O-])c1ccccc1.[Zn+2] [Zinc benzoate]
- Molarity of saturated solution [3]: mol/L 0.0117
